pIC50: −log10 of the molar value.

The source of these data is patent US20240148744A1 (Celgene Corporation, priority 2021, published 2024).

The test system of one assay is Onchocerca gutturosa adult male worms. Briefly: Onchocerca gutturosa in vitro screening model: adult worm motility score and MTT/formazan viability. In kind it is cell-based. The settings on record: read-out: O. gutt Activity class.
As to `O=S(=O)(Nc1ccc2cccnc2c1)c1ccccn1` [Compound 262, N-(quinolin-7-yl)pyridine-2-sulfonamide], the pIC50 is 5.30 to 6.30. Consider `Cc1ccc(S(=O)(=O)Nc2cccc3cccnc23)cc1C` [Compound 273, 3,4-dimethyl-N-(quinolin-8-yl)benzenesulfon-amide], for which the pIC50 was over 6.70.

In the case of `O=S(=O)(Nc1cccc2cccnc12)c1ccccc1C(F)(F)F` [Compound 274, N-(quinolin-8-yl)-2-(trifluoromethyl) benzene-sulfonamide], the pIC50 is over 6.70.

Regarding `O=S(=O)(Nc1cccc2cccnc12)c1ccc(F)cc1F` [Compound 275, 2,4-difluoro-N-(quinolin-8-yl)benzene-sulfonamide], the pIC50 is 6.30 to 6.70. On the same count and under the same terms, to `O=S(=O)(Nc1cccc2cccnc12)c1cccnc1` [Compound 277, N-(quinolin-8-yl)pyridine-3-sulfonamide] belongs 5.30 to 6.30; to `O=S(=O)(Nc1cccc2cccnc12)c1ccc(Cl)cc1Cl` [Compound 278, 2,4-dichloro-N-(quinolin-8-yl)benzene-sulfonamide], 6.30 to 6.70. The same measure, in the same setting: in the case of `N#Cc1ccc(S(=O)(=O)Nc2cccc3cccnc23)cc1` [Compound 279, 4-cyano-N-(quinolin-8-yl)benzene-sulfonamide] it was 6.30 to 6.70. Still for that read-out and setting: in the case of `O=S(=O)(Nc1cccc2cccnc12)c1ccco1` [Compound 281, N-(quinolin-8-yl)furan-2-sulfonamide] it was 5.30 to 6.30; in that of `O=S(=O)(Nc1cccc2cccnc12)c1ccc2ccccc2c1` [Compound 282, N-(quinolin-8-yl)naphthalene-2-sulfonamide], 6.30 to 6.70; in that of `O=S(=O)(Nc1cccc2cccnc12)c1cccc(F)c1` [Compound 283, 3-fluoro-N-(quinolin-8-yl)benzene-sulfonamide], 6.30 to 6.70.

For the compound `Cc1ccc(S(=O)(=O)Nc2cccc3cccnc23)cc1` [Compound 284, 4-methyl-N-(quinolin-8-yl)benzene-sulfonamide], the pIC50 is over 6.70.

With `O=S(=O)(Nc1cccc2cccnc12)c1ccc(Cl)cc1` [Compound 285, 4-chloro-N-(quinolin-8-yl)benzene-sulfonamide], the pIC50 was over 6.70.

For a further assay, the system named is Dirofilaria immitis. Briefly: Heartworm screen Dirofilaria immitis (stage DiMF/DiL4 not specified in the tables). In kind it is cell-based. The settings on record: read-out: D. immitis Activity class.
`Cc1ccnc2c(NS(=O)(=O)c3ccc(C(F)(F)F)nc3)cccc12` [Compound 8, N-(4-methyl-quinolin-8-yl)-6-(trifluoro-methyl)pyr-idine-3-sulfon-amide]: the pIC50 is 6.30 to 6.70. On the same count and under the same terms, in the case of `COc1ccnc2c(NS(=O)(=O)c3ccc(C(F)(F)F)nc3)cccc12` [Compound 10, N-(4-meth-oxyquinolin-8-yl)-6-(trifluoro-methyl)pyr-idine-3-sulfonamide] it was 5.30 to 6.30. On the same count and under the same terms, in the case of `COc1cnc2c(NS(=O)(=O)c3ccc(C(F)(F)F)nc3)cccc2c1` [Compound 11, N-(3-meth-oxyquinolin-8-yl)-6-(trifluoro-methyl)pyr-idine-3-sulfonamide] it was 5.30 to 6.30; in that of `Cc1cnc2c(NS(=O)(=O)c3ncccc3C)cccc2c1` [Compound 66, 3-methyl-N-(3-methyl-quinolin-8-yl)pyridine-2-sulfonamide], 5.30 to 6.30; in that of `Cc1ccc2cccc(NS(=O)(=O)c3ncccc3C)c2n1` [Compound 67, 3-methyl-N-(2-methyl-quinolin-8-yl)pyridine-2-sulfonamide], 5.30 to 6.30.

On to `CCn1ccnc1S(=O)(=O)Nc1cccc2c(Cl)ccnc12` [Compound 85, N-(4-chloro-quinolin-8-yl)-1-ethyl-1H-imidazole-2-sulfonamide], for which the pIC50 was 5.30 to 6.30. Still for that read-out and setting: to `CCn1ccnc1S(=O)(=O)Nc1cccc2c(C)ccnc12` [Compound 104, 1-ethyl-N-(4-methylquin-olin-8-yl)-1H-imidazole-2-sulfonamide] belongs 6.30 to 6.70; to `COc1ccc2cccnc2c1NS(=O)(=O)c1ccc(C)cn1` [Compound 111, N-(7-methoxy-quinolin-8-yl)-5-methylpyr-idine-2-sulfonamide], 5.30 to 6.30. As for `Cc1ccc(S(=O)(=O)Nc2cc(Cl)cc3cccnc23)nc1` [Compound 115, N-(6-chloro-quinolin-8-yl)-5-methylpyr-idine-2-sulfon-amide], the pIC50 was 5.30 to 6.30. For the compound `O=S(=O)(Nc1c(Cl)cc(F)c2cccnc12)c1ncccc1C1CC1` [Compound 140, N-(7-chloro-5-fluoroquinolin-8-yl)-3-cyclo-propylpyridine-2-sulfonamide], the pIC50 was 5.30 to 6.30. Same read-out and setting: to `O=S(=O)(Nc1cccc2cccnc12)c1ccc(C2CC2)nc1` [Compound 142, 6-cyclopropyl-N-(quinolin-8-yl)pyridine-3-sulfonamide] belongs 5.30 to 6.30; to `COc1ccc(S(=O)(=O)Nc2cccc3cccnc23)cn1` [Compound 144, 6-methoxy-N-(quinolin-8-yl)pyridine-3-sulfonamide], 5.30 to 6.30; to `O=S(=O)(Nc1cccc2cccnc12)c1ccc(C(F)(F)F)cn1` [Compound 145, N-(quinolin-8-yl)-5-(trifluoromethyl) pyridine-2-sulfonamide], 6.30 to 6.70. On the same count and under the same terms, in the case of `O=S(=O)(Nc1cccc2cccnc12)c1cccnc1C(F)(F)F` [Compound 146, N-(quinolin-8-yl)-2-(trifluoromethyl) pyridine-3-sulfonamide] it was 5.30 to 6.30; in that of `O=S(=O)(Nc1cccc2cccnc12)c1cnccc1C(F)(F)F` [Compound 147, N-(quinolin-8-yl)-4-(trifluoromethyl) pyridine-3-sulfonamide], 5.30 to 6.30. The same measure, in the same setting: to `Cc1ccncc1S(=O)(=O)Nc1cccc2cccnc12` [Compound 148, 4-methyl-N-(quinolin-8-yl)pyridine-3-sulfonamide] belongs 5.30 to 6.30.

On to `Cc1cnccc1S(=O)(=O)Nc1cccc2cccnc12` [Compound 149, 3-methyl-N-(quinolin-8-yl)pyridine-4-sulfonamide], for which the pIC50 was 5.30 to 6.30. `Cc1ccc(C(F)(F)F)nc1S(=O)(=O)Nc1cccc2cccnc12` [Compound 163, 3-methyl-N-(quinolin-8-yl)-6-(trifluoromethyl) pyridine-2-sulfonamide]: the pIC50 is 5.30 to 6.30. The same measure, in the same setting: in the case of `Cc1cc(C)c(S(=O)(=O)Nc2cccc3cccnc23)cn1` [Compound 164, 4,6-dimethyl-N-(quinolin-8-yl)pyridine-3-sulfonamide] it was 5.30 to 6.30; in that of `Cc1ccc(C(F)(F)F)c(S(=O)(=O)Nc2cccc3cccnc23)n1` [Compound 165, 6-methyl-N-(quinolin-8-yl)-3-(trifluoromethyl) pyridine-2-sulfonamide], 6.30 to 6.70; in that of `Cc1cc(C(F)(F)F)ncc1S(=O)(=O)Nc1cccc2cccnc12` [Compound 166, 4-methyl-N-(quinolin-8-yl)-6-(trifluoromethyl) pyridine-3-sulfonamide], 5.30 to 6.30.

As for `O=S(=O)(Nc1cccc2cccnc12)c1nc2ccccc2[nH]1` [Compound 232, N-(quinolin-8-yl)-1H-benzo[d] imidazole-2-sulfonamide], the pIC50 is 5.30 to 6.30. On the same count and under the same terms, to `Cc1cnc(S(=O)(=O)Nc2cccc3cccnc23)n1C` [Compound 233, 1,5-dimethyl-N-(quinolin-8-yl)-1H-imidazole-2-sulfonamide] belongs 6.30 to 6.70; to `O=S(=O)(Nc1cccc2cccnc12)c1cncc(C(F)(F)F)c1` [Compound 263, N-(quinolin-8-yl)-5-(trifluoromethyl) pyridine-3-sulfonamide], 6.30 to 6.70; to `Cc1ccccc1S(=O)(=O)Nc1cccc2cccnc12` [Compound 266, 2-methyl-N-(quinolin-8-yl)benzenesulfon-amide], 5.30 to 6.30.

In the case of `CCn1ccnc1S(=O)(=O)Nc1cccc2cc(N(C)C)cnc12` [Compound 286, N-(3-(dimethylamino)quinolin-8-yl)-1-ethyl-1H-imidazole-2-sulfonamide], the pIC50 was 6.30 to 6.70. The same measure, in the same setting: to `CCn1ccnc1S(=O)(=O)Nc1cccc2cc(C(C)=O)cnc12` [Compound 287, N-(3-acetylquinolin-8-yl)-1-ethyl-1H-imidazole-2-sulfonamide] belongs 6.30 to 6.70; to `CCn1ccnc1S(=O)(=O)Nc1cccc2c(C(C)=O)ccnc12` [Compound 288, N-(4-acetylquinolin-8-yl)-1-ethyl-1H-imidazole-2-sulfonamide], 6.30 to 6.70.

As for `O=S(=O)(Nc1ccc(C(F)(F)F)c2cccnc12)c1nccn1-c1ccccc1` [Compound 289, 1-phenyl-N-(5-(trifluoromethyl)quinolin-8-yl)-1H-imidazole-2-sulfonamide], the pIC50 was over 6.70. On the same count and under the same terms, to `CCn1ccnc1S(=O)(=O)Nc1ccc(C#N)c2cccnc12` [Compound 290, N-(5-cyanoquinolin-8-yl)-1-ethyl-1H-imidazole-2-sulfonamide] belongs 6.30 to 6.70; to `CCn1ccnc1S(=O)(=O)Nc1cccc2c(-c3ccccc3)ccnc12` [Compound 291, 1-ethyl-N-(4-phenylquinolin-8-yl)-1H-imidazole-2-sulfonamide], over 6.70. Same read-out and setting: to `O=S(=O)(Nc1ccc(Oc2cccc(C(F)(F)F)c2)c2cccnc12)c1nccn1CC(F)(F)F` [Compound 292, 1-(2,2,2-trifluoroethyl)-N-(5-(3-(trifluoromethyl)phenoxy)quinolin-8-yl)-1H-imidazole-2-sulfonamide] belongs over 6.70; to `CCn1ccnc1S(=O)(=O)Nc1ccc(Br)c2cccnc12` [Compound 293, N-(5-bromoquinolin-8-yl)-1-ethyl-1H-imidazole-2-sulfonamide], over 6.70. As to `CCn1ccnc1S(=O)(=O)Nc1ccc(S(C)(=O)=O)c2cccnc12` [Compound 294, 1-ethyl-N-(5-(methylsulfonyl)quinolin-8-yl)-1H-imidazole-2-sulfonamide], the pIC50 was 6.30 to 6.70. On the same count and under the same terms, to `O=S(=O)(Nc1cc(F)cc2cccnc12)c1nccn1-c1ccc(C(F)(F)F)cc1` [Compound 295, N-(6-fluoroquinolin-8-yl)-1-(4-(trifluoromethyl)phenyl)-1H-imidazole-2-sulfonamide] belongs over 6.70; to `O=S(=O)(Nc1ccc(-c2ccc(F)cc2)c2cccnc12)c1nccn1CC(F)(F)F` [Compound 296, N-(5-(4-fluorophenyl)quinolin-8-yl)-1-(2,2,2-trifluoroethyl)-1H-imidazol-2-sulfonamide], over 6.70.
